Structures can show the parent of a compound that is named as a salt. Where two headings read alike, the source gives them in different places.
Tests used:
Son of Sevenless (SOS) = biological target: T1, Son of Sevenless (SOS) (Homo sapiens, UniProt Q07889); assay: Binding to SOS, fluorescence polarization anisotropy (FPA) probe displacement; conditions: displacement of FITC-conjugated probe (Example 285), affinity calculated from IC50
T1 sequence (Q07889 564-1049 limits assumed): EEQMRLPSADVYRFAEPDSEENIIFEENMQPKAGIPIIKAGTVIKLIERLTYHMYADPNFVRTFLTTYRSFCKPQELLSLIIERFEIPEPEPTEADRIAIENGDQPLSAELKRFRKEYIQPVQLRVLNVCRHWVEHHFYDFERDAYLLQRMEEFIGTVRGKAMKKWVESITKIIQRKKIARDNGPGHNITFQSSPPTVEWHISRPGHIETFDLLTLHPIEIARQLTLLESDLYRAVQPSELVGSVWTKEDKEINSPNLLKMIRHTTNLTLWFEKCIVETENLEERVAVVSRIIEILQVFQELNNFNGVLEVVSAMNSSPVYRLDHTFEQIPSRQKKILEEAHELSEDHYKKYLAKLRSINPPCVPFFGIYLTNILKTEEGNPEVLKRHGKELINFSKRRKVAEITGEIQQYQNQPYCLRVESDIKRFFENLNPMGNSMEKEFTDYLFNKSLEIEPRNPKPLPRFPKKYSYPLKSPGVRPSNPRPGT
How it was run: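 A FITC-conjugated probe compound was incubated with SOS in buffer, and its displacement was tracked as a change in fluorescence anisotropy across a test-compound dose range. IC50 came from a four-parameter variable-slope fit, and binding affinity was calculated from it.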

[1] = tested on: H727 lung cancer cell lines (G12V K-Ras mutation); assay: Inhibition of cancer cell proliferation (CellTiter-Glo); type: cell-based; conditions: Homo sapiens, NCI-H727, 72 h, read-out: Cell proliferation activity (H727 cancer cell line proliferation IC50)
How it was run: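 H727 cells (K-Ras G12V), 1000/well, plated overnight then exposed to a compound dose range for 3 days at 37 °C. Proliferation by CellTiter-Glo, normalized to DMSO; IC50 from four-parameter variable-slope fit.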

[2] = biological target: Ras GEF SOS (Son of Sevenless) (Homo sapiens, UniProt Q07889); assay: SOS-mediated nucleotide exchange on Ras (BODIPY-GDP fluorescence); type: biochemical; conditions: SOS-mediated exchange of BODIPY-GDP for GTP on Ras
How it was run: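 Ras loaded with BODIPY-GDP was mixed in buffer with test compound, then GTP and SOS. Fluorescence change from labeled GDP/GTP exchange was followed over time, and rates came from single-exponential fits. EC50 came from a four-parameter fit of mean rate against compound concentration.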

[3] = H727 cells, 3 days treatment, CellTiter-Glo

Sequence of Ras GEF SOS (Son of Sevenless) (P01112 1-166 partner limits assumed, one chain of several): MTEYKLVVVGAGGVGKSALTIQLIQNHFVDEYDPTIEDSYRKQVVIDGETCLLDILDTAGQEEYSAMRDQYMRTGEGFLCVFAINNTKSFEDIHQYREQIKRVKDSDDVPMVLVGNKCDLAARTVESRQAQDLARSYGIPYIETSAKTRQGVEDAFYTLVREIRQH

CC(C)c1ccccc1-c1cccc2c1nc(N1CCNCC1)n2Cc1ccc(F)c(Cl)c1 [Example 94, 1-(3-chloro-4-fluorobenzyl)-4-(2-isopropylphenyl)-2-(piperazin-1-yl)-1H-benzo[d]imidazole]
Ki (Son of Sevenless (SOS)): 1 to 5 µM
IC50 [1, 3]: 1 to 5 µM
EC50 [2]: 1 to 5 µM

CCc1cc(Cn2c(N3CCNCC3)nc3cc(C)c(C)cc32)cc(Cl)c1F [Example 48, 1-(3-chloro-5-ethyl-4-fluorobenzyl)-5,6-dimethyl-2-(piperazin-1-yl)-1H-benzo[d]imidazole trifluoroacetate]
Ki (Son of Sevenless (SOS)): 1 to 5 µM
IC50 [1]: 1 to 5 µM
EC50 [2]: 1 to 5 µM

CCc1cc(Cn2c(N3CCNCC3)nc3cc(C)c(C)cc32)cc(CC)c1F [Example 49, 1-(3,5-diethyl-4-fluorobenzyl)-5,6-dimethyl-2-(piperazin-1-yl)-1H-benzo[d]imidazole trifluoroacetate]
Ki (Son of Sevenless (SOS)): > 5 µM
IC50 [1]: 1 to 5 µM
EC50 [2]: 1 to 5 µM

Fc1ccc(Cn2c(N3CCNCC3)nc3c(-c4ccnn4-c4ccc(Br)cc4)cc(Cl)cc32)cc1Cl [Example 170, 4-(1-(4-bromophenyl)-1H-pyrazol-5-yl)-6-chloro-1-(3-chloro-4-fluorobenzyl)-2-(piperazin-1-yl)-1H-benzo[d]imidazole trifluoroacetate]
Ki (Son of Sevenless (SOS)): < 0.5 µM
IC50 [1]: 5 to 20 µM
EC50 [2]: 1 to 5 µM

Cc1cc2c(nc(N3CCNCC3)n2Cc2ccc(Cl)cc2)c(-c2ccccc2F)c1C [Example 107, 1-(4-chlorobenzyl)-4-(2-fluorophenyl)-5,6-dimethyl-2-(piperazin-1-yl)-1H-benzo[d]imidazole trifluoroacetate]
Ki (Son of Sevenless (SOS)): 1 to 5 µM
IC50 [1]: 5 to 20 µM
EC50 [2]: 1 to 5 µM

CCC[C@H](N)c1cc(Cl)cc2c1nc(N1CCNCC1)n2Cc1cc(C)c(F)c(C)c1 [Example 164, (S)-1-(6-chloro-1-(4-fluoro-3,5-dimethylbenzyl)-2-(piperazin-1-yl)-1H-benzo[d]imidazol-4-yl)butan-1-amine trifluoroacetate]
Ki (Son of Sevenless (SOS)): < 0.5 µM
IC50 [1]: < 1 µM
EC50 [2]: 1 to 5 µM

COc1ccc(-c2c(C)c(C)cc3c2nc(N2CCNCC2)n3Cc2ccc(F)c(Cl)c2)cc1OC [Example 110, 1-(3-chloro-4-fluorobenzyl)-4-(3,4-dimethoxyphenyl)-5,6-dimethyl-2-(piperazin-1-yl)-1H-benzo[d]imidazole]
Ki (Son of Sevenless (SOS)): 1 to 5 µM
IC50 [1, 3]: 1 to 5 µM
EC50 [2]: 1 to 5 µM

C=Cc1cc(Cn2c(N3CCNCC3)nc3cc(C)c(C)cc32)cc(C=C)c1F [Example 46, 1-(4-fluoro-3,5-divinylbenzyl)-5,6-dimethyl-2-(piperazin-1-yl)-1H-benzo[d]imidazole trifluoroacetate]
Ki (Son of Sevenless (SOS)): > 5 µM
IC50 [1]: 1 to 5 µM
EC50 [2]: 5 to 30 µM

Cc1cc2c(nc(N3CCNCC3)n2Cc2ccc(F)c(Cl)c2)c(-c2ccccc2)c1C [Example 104, 1-(3-chloro-4-fluorobenzyl)-5,6-dimethyl-4-phenyl-2-(piperazin-1-yl)-1H-benzo[d]imidazole trifluoroacetate]
Ki (Son of Sevenless (SOS)): 1 to 5 µM
IC50 [1]: 1 to 5 µM
EC50 [2]: 1 to 5 µM
